Measured values reported in patent publication US12215106B2, “Pharmaceutical compounds and therapeutic methods” (RUTGERS, THE STATE UNIVERSITY OF NEW JERSEY, priority 2018, dated 2025).
Counter-ions that a name gives are not always drawn. Like-named read-outs stand apart in the source and are kept apart here.

Experiment: Plasma pharmacokinetics and brain distribution after single IV, IP and oral administration
Type: in vivo
Settings: for Kp at 0.08 h / Kp at 0.35 h / Kp at 1 h / Kp at 3 h / Kp at 6 h: read-out: Brain-to-plasma ratio
Procedure: (§1) The objective of this study was to investigate the plasma pharmacokinetics and brain distribution of Compound (14 in male C57BL/6 mice following a single intravenous, intraperitoneal and oral administration. A group of sixty-three male mice were divided into three groups (Group 1: 2 mg/kg/IV; Group 2: 10 mg/kg/IP and Group 3: 10 mg/kg/PO) with each group comprising of twenty-one mice.
Animals in Group 1 were administered intravenously with Compound 15 solution formulation in 5% NMP, 5% Solutol HS-15, 30% PEG-400 and 60% Captisol (20% w/v) at 2 mg/kg dose. […] Considering mortality intravenous dose was reduced to 2 mg/kg.
Animals in Group 2 and 3 were administered with Compound 15 solution formulation in 5% NMP, 5% Solutol HS-15, 30% PEG-400 and 60% Captisol (20% w/v) at a dose of 10 mg/kg by intraperitoneal and oral route respectively.
(§2) Blood samples (approximately 60 μL) were collected under light isoflurane anesthesia from retro orbital plexus from a set of three mice at 0.08, 0.35, 1, 3, 6, 12 and 24 hr. Plasma samples were separated by centrifugation of whole blood and stored below −70±10° C. until bioanalysis. Immediately after collection of blood, brain samples were collected from set of three mice at each time point. Brain samples were homogenized using ice-cold phosphate buffer saline (pH-7.4) in a ratio of 2 (buffer):1(brain); and homogenates were stored below −70±10° C. until analysis. Total homogenate volume was three times the brain weight. All samples were processed for analysis by protein precipitation using acetonitrile and analyzed with fit-for-purpose LC/MS/MS method (LLOQ2.00 ng/mL for plasma and 3.00 ng/g for brain). Pharmacokinetic parameters were calculated using the non-compartmental analysis tool of Phoenix WinNonlin® (Version 7.0). Pharmacokinetic parameters of Compound 15 are summarized below.
as §1, with “Compound 16” for “Compound (14”, “1: 10” for “1: 2”
Animals in Group 1 were administered intravenously with Compound 16 solution formulation in 5% NMP, 5% Solutol HS-15 and 90% normal saline at 10 mg/kg dose.
Animals in Group 2 and 3 were administered with Compound 16 solution formulation in 5% NMP, 5% Solutol HS-15 and 90% normal saline at a dose of 10 mg/kg by intraperitoneal and oral route respectively.
as §2, with “(LLOQ—1.00” for “(LLOQ2.00”, “16” for “15”
as §1, with “17” for “(14”, “mice. […]” for “mice.”

[1] = male, C57BL/6, mouse, brain, ip, 10 mg/kg, IP 10 mg/kg
[2] = male, C57BL/6, mouse, brain, po, 10 mg/kg, PO 10 mg/kg
[3] = male, C57BL/6, mouse, in vivo, ip, 10 mg/kg
[4] = male, C57BL/6, mouse, in vivo, ip, 10 mg/kg, 12 h
[5] = male, C57BL/6, mouse, in vivo, ip, 10 mg/kg, 24 h
[6] = male, C57BL/6, mouse, in vivo, ip, 10 mg/kg, Brain concentration, individual animal
[7] = male, C57BL/6, mouse, in vivo, ip, 10 mg/kg, Mean brain conc.
[8] = male, C57BL/6, mouse, in vivo, ip, 10 mg/kg, Mean plasma conc.
[9] = male, C57BL/6, mouse, in vivo, ip, 10 mg/kg, Plasma concentration, individual animal
[10] = male, C57BL/6, mouse, in vivo, iv, 2 mg/kg
[11] = male, C57BL/6, mouse, in vivo, iv, 2 mg/kg, 3 h
[12] = male, C57BL/6, mouse, in vivo, iv, 2 mg/kg, 6 h
[13] = male, C57BL/6, mouse, in vivo, iv, 2 mg/kg, 12 h
[14] = male, C57BL/6, mouse, in vivo, iv, 2 mg/kg, 24 h
[15] = male, C57BL/6, mouse, in vivo, iv, 2 mg/kg, Brain concentration, individual animal
[16] = male, C57BL/6, mouse, in vivo, iv, 2 mg/kg, Mean brain conc.
[17] = male, C57BL/6, mouse, in vivo, iv, 2 mg/kg, Mean plasma conc.
[18] = male, C57BL/6, mouse, in vivo, iv, 2 mg/kg, Plasma concentration, individual animal
[19] = male, C57BL/6, mouse, in vivo, po, 10 mg/kg
[20] = male, C57BL/6, mouse, in vivo, po, 10 mg/kg, 12 h
[21] = male, C57BL/6, mouse, in vivo, po, 10 mg/kg, 24 h
[22] = male, C57BL/6, mouse, in vivo, po, 10 mg/kg, Brain concentration, individual animal
[23] = male, C57BL/6, mouse, in vivo, po, 10 mg/kg, Mean brain conc.
[24] = male, C57BL/6, mouse, in vivo, po, 10 mg/kg, Mean plasma conc.
[25] = male, C57BL/6, mouse, in vivo, po, 10 mg/kg, Plasma concentration, individual animal
[26] = male, C57BL/6, mouse, in vivo, IV 2 mg/kg
[27] = male, C57BL/6, mouse, plasma, IP 10 mg/kg
[28] = male, C57BL/6, mouse, plasma, IV 2 mg/kg
[29] = male, C57BL/6, mouse, plasma, PO 10 mg/kg

[2H]C1([2H])Oc2ccc(Nc3nc(-c4c(C)nc5ccccn45)cs3)cc2O1 [Compound 17, N-(benzo[d][1,3]dioxol-5-yl-2,2-d2)-4-(2-methylimidazo[1,2-c]pyridin-3-yl)thiazol-2-amine hydrochloride]
Oral bioavailability, % F (PO 10 mg/kg, AUClast considered, hydrochloride, 10 mg/kg): ~100%
AUClast (brain, IP 10 mg/kg): 360.87 ng·h/g
AUClast (brain, IV 2 mg/kg): 97.08 ng·h/g
AUCinf (brain, PO 10 mg/kg): 204.06 ng·h/g
AUClast (brain, PO 10 mg/kg): 171.84 ng·h/g
Kp at 0.08 h (male, C57BL/6, mouse, brain, ip, 10 mg/kg, IP 10 mg/kg, 0.08 hr): 0.61
Kp at 0.35 h [1]: 0.52
Kp at 1 h [1]: 0.39
Kp at 3 h [1]: 1.1
Kp at 6 h [1]: 0.59
Kp (male, C57BL/6, mouse, brain, ip, 10 mg/kg, IP 10 mg/kg, read-out: brain-to-plasma ratio, range over time): 0.39 to 1.1
Kp (male, C57BL/6, mouse, brain, iv, 2 mg/kg, IV 2 mg/kg, read-out: brain-to-plasma ratio, range over time): 0.18 to 4.03
Kp at 0.08 h (male, C57BL/6, mouse, brain, po, 10 mg/kg, PO 10 mg/kg, 0.08 hr): 0.33
Kp at 0.35 h [2]: 0.32
Kp at 1 h [2]: 0.48
Kp at 3 h [2]: 0.32
Kp at 6 h [2]: 0.23
Kp (male, C57BL/6, mouse, brain, po, 10 mg/kg, PO 10 mg/kg, read-out: brain-to-plasma ratio, range over time): 0.23 to 0.48
Kp (male, C57BL/6, mouse, brain, po, 10 mg/kg, summary data, read-out: Brain to plasma ratio following a single oral dose): 0.48
Brain concentrations quantifiable up to [3]: up to 6 hr
Plasma concentrations quantifiable up to [3]: up to 6 hr
Brain concentration, individual animal [4]: 0.00 ng/g
Plasma concentration, individual animal [4]: 0.00 ng/mL
Brain concentration, individual animal [5]: 0.00 ng/g
Plasma concentration, individual animal [5]: 0.00 ng/mL
concentration at 0.08 h [6]: 285 ng/g
concentration at 0.35 h [6]: 291 ng/g
concentration at 1 h [6]: 65.9 ng/g
concentration at 12 h [6]: 0 ng/g
concentration at 24 h [6]: 0 ng/g
concentration at 0.35 h [7]: 236 ng/g
concentration at 1 h [7]: 90.3 ng/g
concentration at 3 h [7]: 82 ng/g
concentration at 6 h [7]: 26 ng/g
concentration at 12 h [7]: 0 ng/g
concentration at 24 h [7]: 0 ng/g
concentration at 0.35 h [8]: 458 ng/mL
concentration at 1 h [8]: 232 ng/mL
concentration at 3 h [8]: 74.9 ng/mL
concentration at 6 h [8]: 43.7 ng/mL
concentration at 12 h [8]: 0 ng/mL
concentration at 24 h [8]: 0 ng/mL
concentration at 0.08 h [9]: 530 ng/mL
concentration at 0.35 h [9]: 478 ng/mL
concentration at 1 h [9]: 223 ng/mL
concentration at 12 h [9]: 0 ng/mL
concentration at 24 h [9]: 0 ng/mL
Brain concentrations quantifiable up to [10]: up to 1 hr
Vss, fold more than normal volume of total body water (0.7 L/kg) [10]: 6.3 fold
Brain concentration, individual animal [11]: 0.00 ng/g
Plasma concentration, individual animal [11]: 0.00 ng/mL
Brain concentration, individual animal [12]: 0.00 ng/g
Plasma concentration, individual animal [12]: 0.00 ng/mL
Brain concentration, individual animal [13]: 0.00 ng/g
Plasma concentration, individual animal [13]: 0.00 ng/mL
Brain concentration, individual animal [14]: 0.00 ng/g
Plasma concentration, individual animal [14]: 0.00 ng/mL
concentration at 0.08 h [15]: 44.7 ng/g
concentration at 1 h [15]: 17.1 ng/g
concentration at 3 h [15]: 0 ng/g
concentration at 6 h [15]: 0 ng/g
concentration at 12 h [15]: 0 ng/g
concentration at 24 h [15]: 0 ng/g
concentration at 0.08 h [16]: 44.9 ng/g
concentration at 0.35 h [16]: 180 ng/g
concentration at 1 h [16]: 13.8 ng/g
concentration at 3 h [16]: 0 ng/g
concentration at 6 h [16]: 0 ng/g
concentration at 12 h [16]: 0 ng/g
concentration at 24 h [16]: 0 ng/g
concentration at 0.08 h [17]: 256 ng/mL
concentration at 0.35 h [17]: 44.8 ng/mL
concentration at 1 h [17]: 9.57 ng/mL
concentration at 3 h [17]: 0 ng/mL
concentration at 6 h [17]: 0 ng/mL
concentration at 12 h [17]: 0 ng/mL
concentration at 24 h [17]: 0 ng/mL
concentration at 0.08 h [18]: 260 ng/mL
concentration at 0.35 h [18]: 41.5 ng/mL
concentration at 3 h [18]: 0 ng/mL
concentration at 6 h [18]: 0 ng/mL
concentration at 12 h [18]: 0 ng/mL
concentration at 24 h [18]: 0 ng/mL
Brain concentrations quantifiable up to [19]: up to 6 hr
Plasma concentrations quantifiable up to [19]: up to 6 hr
Brain concentration, individual animal [20]: 0.00 ng/g
Plasma concentration, individual animal [20]: 0.00 ng/mL
Brain concentration, individual animal [21]: 0.00 ng/g
Plasma concentration, individual animal [21]: 0.00 ng/mL
concentration at 0.35 h [22]: 43.6 ng/g
concentration at 3 h [22]: 28.1 ng/g
concentration at 12 h [22]: 0 ng/g
concentration at 24 h [22]: 0 ng/g
concentration at 0.35 h [23]: 53 ng/g
concentration at 1 h [23]: 51.9 ng/g
concentration at 3 h [23]: 20.5 ng/g
concentration at 6 h [23]: 10.5 ng/g
concentration at 12 h [23]: 0 ng/g
concentration at 24 h [23]: 0 ng/g
concentration at 0.35 h [24]: 163 ng/mL
concentration at 1 h [24]: 109 ng/mL
concentration at 3 h [24]: 63.5 ng/mL
concentration at 6 h [24]: 45.5 ng/mL
concentration at 12 h [24]: 0 ng/mL
concentration at 24 h [24]: 0 ng/mL
concentration at 3 h [25]: 62.6 ng/mL
concentration at 12 h [25]: 0 ng/mL
concentration at 24 h [25]: 0 ng/mL
concentration at 0.08 h (male, C57BL/6, mouse, in vivo, IP 10 mg/kg, 0.08 hr, read-out: Mean brain conc.): 288 ng/g
concentration at 0.08 h (male, C57BL/6, mouse, in vivo, IP 10 mg/kg, 0.08 hr, read-out: Mean plasma conc.): 469 ng/mL
Kp at 0.08 h (male, C57BL/6, mouse, in vivo, IV 2 mg/kg, 0.08 hr): 0.18
Kp at 0.35 h [26]: 4.03
Kp at 1 h [26]: 1.45
concentration at 0.08 h (male, C57BL/6, mouse, in vivo, PO 10 mg/kg, 0.08 hr, read-out: Mean brain conc.): 67.3 ng/g
concentration at 0.08 h (male, C57BL/6, mouse, in vivo, PO 10 mg/kg, 0.08 hr, read-out: Mean plasma conc.): 207 ng/mL
Cmax (male, C57BL/6, mouse, in vivo, brain, IP 10 mg/kg): 288 ng/g
Cmax (male, C57BL/6, mouse, in vivo, brain, PO 10 mg/kg): 67.3 ng/g
Cmax (male, C57BL/6, mouse, in vivo, plasma, IP 10 mg/kg): 469 ng/mL
Cmax (male, C57BL/6, mouse, in vivo, plasma, PO 10 mg/kg): 207 ng/mL
bioavailability (male, C57BL/6, mouse, plasma, po, 10 mg/kg, PO 10 mg/kg, AUClast considered, read-out: Oral bioavailability, % F): > 100%
bioavailability (male, C57BL/6, mouse, plasma, po, 10 mg/kg, summary data, read-out: Oral bioavailability): > 100%
Tmax (male, C57BL/6, mouse, brain, IP 10 mg/kg): 4.8 min
Tmax (male, C57BL/6, mouse, brain, PO 10 mg/kg): 4.8 min
AUC(0-inf) [27]: 786 ng·h/mL
AUC(0-t) [27]: 675 ng·h/mL
Tmax [27]: 4.8 min
AUC(0-inf) [28]: 88.2 ng·h/mL
AUC(0-t) [28]: 85.7 ng·h/mL
clearance (male, C57BL/6, mouse, plasma, IV 2 mg/kg, read-out: CL, plasma clearance): 378 mL/min/kg
half-life (male, C57BL/6, mouse, plasma, IV 2 mg/kg, read-out: T1/2, terminal elimination half-life (converted)): 12.6 min
Vd (male, C57BL/6, mouse, plasma, IV 2 mg/kg, read-out: Vss): 4.4 L/kg
AUC(0-t) [29]: 482 ng·h/mL
Tmax [29]: 4.8 min
mortality immediately after dose administration (mouse, in vivo, iv, 10 mg/kg): mortality was observed in six animals
Oral bioavailability (summary data, hydrochloride): 112%
